Data: US10647678B2 (Cancer Research Technology Limited, priority 2015, dated 2020)

Tested on: HSF1 pathway (HSP72 expression) in SK-OV-3 cells
Test: Cell-based ELISA (Cellisa) assay: HSP72 induction by 17-AAG in SK-OV-3 cells
Details: Homo sapiens, compound 1 h before 17-AAG (250 nM), then 18 h, HSP72 antibody, europium counts normalised to protein, 50% inhibitory concentration, read-out: SKOV3 Cellisa
Experimental: U2OS cells (5-8×10^4 cells/mL) or SK-OV-3 cells (5-8×10^4 cells/mL) were seeded into 96-well plates and incubated at 37° C. for 48 h. […] Cells were then incubated for 18 h. The medium was removed washed 2× with PBS and cells were then fixed with fixing solution (4% paraformaldehyde, 0.3% TritonX-100 in PBS) for 30 min at 4° C. The plates were then washed 2× with PBS before blocking with 5% milk for 30 min at 37° C. After washing the plates 4× with 0.1% Tween-20/deionised water, HSP72 antibody (SPA-810, Enzo Life) was added for 1.5 h at 37° C. Following 4× washes, the plates were incubated with europium-labelled anti-mouse antibody (0.6 ug/ml) in Delfia assay buffer (Perkin Elmer) for 1 h at 37° C. After washing the plates, Delfia enhancement solution was added, shaken for 10 min before reading in the Envision plate reader (Perkin-Elmer) with excitation at 340 nm and emission at 615 nm. The plates were washed again before protein determination using the bicinchoninic acid assay (BCA assay, Pierce Biotechnology). The europium counts were normalised for the amount of protein in each well. The 50% inhibitory concentration value of the compound was then calculated.

Compared with `CCN1CCN(Cc2ccc3cc(C(=O)Nc4cc(NC(=O)c5ccc6c(c5)OCC6)ccc4C)ccc3n2)CC1` [Example 16, N-(5-(2,3-Dihydrobenzofuran-6-carboxamido)-2-methylphenyl)-2-((4-ethylpiperazin-1-yl)methyl)quinoline-6-carboxamide], `CCN1CCN(Cc2ccc3cc(C(=O)Nc4cc(NC(=O)c5ccc6c(c5)OCC6)ccc4F)ccc3n2)CC1` [Example 17, N-(5-(2,3-Dihydrobenzofuran-6-carboxamido)-2-fluorophenyl)-2-((4-ethylpiperazin-1-yl)methyl)quinoline-6-carboxamide] is 6.5-fold higher in IC50: 120 nM for the first, 780 nM for the second.

`Cc1ccc2cc(C(=O)Nc3cc(NC(=O)c4ccc5c(c4)OCC5)ccc3Cl)ccc2n1` [Example 14, N-(2-Chloro-5-(2,3-dihydrobenzofuran-6-carboxamido)phenyl)-2-methylquinoline-6-carboxamide] and `Cc1ccc2cc(C(=O)Nc3cc(NC(=O)c4ccc5c(c4)OCCC5)ccc3Cl)ccc2n1` [Example 7, N-(2-Chloro-5-(chroman-7-carboxamido)phenyl)-2-methylquinoline-6-carboxamide] are within 1.5-fold of each other in IC50: 2100 nM for the first, 1500 nM for the second.

Going from `CCN1CCN(Cc2ccc3cc(C(=O)Nc4cc(NC(=O)c5ccc6c(c5)OCCC6)ccc4F)ccc3n2)CC1` [Example 15, N-(5-(Chroman-7-carboxamido)-2-fluorophenyl)-2-((4-ethylpiperazin-1-yl)methyl)quinoline-6-carboxamide] to `CCN1CCN(Cc2ccc3cc(C(=O)Nc4cc(NC(=O)c5ccc6c(c5)OCC6)ccc4Cl)ccc3n2)CC1` [Example 18, N-(2-Chloro-5-(2,3-dihydrobenzofuran-6-carboxamido)phenyl)-2-((4-ethylpiperazin-1-yl)methyl)quinoline-6-carboxamide], the IC50 falls from 1000 nM to 640 nM (1.6-fold). The second is the more potent here.

First: Cc1ccc2cc(C(=O)Nc3cc(NC(=O)c4ccc5c(c4)OCC5)ccc3C)ccc2n1 [Example 9, N-(5-(2,3-Dihydrobenzofuran-6-carboxamido)-2-methylphenyl)-2-methylquinoline-6-carboxamide]
Second: Cc1ccc2cc(C(=O)Nc3cc(NC(=O)c4ccc5c(c4)CCO5)ccc3C)ccc2n1 [Example 10, N-(5-(2,3-dihydrobenzofuran-5-carboxamido)-2-methylphenyl)-2-methylquinoline-6-carboxamide]
The IC50 of the first is 11-fold lower: 170 nM for the first, 1800 nM for the second. The first is the more potent here.

Going from `Cc1ccc2cc(C(=O)Nc3cc(NC(=O)c4ccc5c(c4)OC(C)CO5)ccc3F)ccc2n1` (centres unmarked) [Example 4, N-(2-Fluoro-5-(3-methyl-2,3-dihydrobenzo[b][1,4]dioxine-6-carboxamido)phenyl)-2-methylquinoline-6-carboxamide] to `Cc1ccc2cc(C(=O)Nc3cc(NC(=O)c4ccc5c(c4)OC(C)CO5)ccc3C)ccc2n1` (racemic) [Example 3, (rac)-2-Methyl-N-(2-methyl-5-(3-methyl-2,3-dihydrobenzo[b][1,4]dioxine-6-carboxamido)phenyl)quinoline-6-carboxamide], the IC50 falls from 8800 nM to 4100 nM (2.1-fold).

`Cc1ccc2cc(C(=O)Nc3cc(NC(=O)c4ccc5c(c4)CC(C)O5)ccc3C)ccc2n1` (racemic) [Example 5, (rac)-2-Methyl-N-(2-methyl-5-(2-methyl-2,3-dihydrobenzofuran-5-carboxamido)phenyl)quinoline-6-carboxamide] and `Cc1ccc2cc(C(=O)Nc3cc(NC(=O)c4ccc5c(c4)OC(C)C5)ccc3C)ccc2n1` (racemic) [Example 2, (rac)-2-Methyl-N-(2-methyl-5-(2-methyl-2,3-dihydrobenzofuran-6-carboxamido)phenyl)quinoline-6-carboxamide] are within 1.5-fold of each other in IC50: 2900 nM for the first, 3400 nM for the second.

First: Cc1ccc2cc(C(=O)Nc3cc(NC(=O)c4ccc5c(c4)OCCCO5)ccc3C)ccc2n1 [Example 12, N-(5-(3,4-dihydro-2H-benzo[b][1,4]dioxepine-7-carboxamido)-2-methylphenyl)-2-methylquinoline-6-carboxamide]
Second: Cc1ccc2cc(C(=O)Nc3cc(NC(=O)c4ccc5c(c4)OCO5)ccc3C)ccc2n1 [Example 8, N-(5-(Benzo[d][1,3]dioxole-5-carboxamido)-2-methylphenyl)-2-methylquinoline-6-carboxamide]
The IC50 of the first is 5.2-fold higher: 670 nM for the first, 130 nM for the second.

Compared with `Cc1ccc2cc(C(=O)Nc3cc(NC(=O)c4ccc5ccoc5c4)ccc3C)ccc2n1` [Example 11, N-(5-(benzofuran-6-carboxamido)-2-methylphenyl)-2-methylquinoline-6-carboxamide], `Cc1ccc2cc(C(=O)Nc3cc(NC(=O)c4ccc5c(c4)OCC5)ccc3F)ccc2n1` [Example 13, N-(5-(2,3-Dihydrobenzofuran-6-carboxamido)-2-fluorophenyl)-2-methylquinoline-6-carboxamide] is 2-fold higher in IC50: 880 nM for the first, 1800 nM for the second. The first is the more potent here.

Going from `O=C(Nc1ccc(Cl)c(NC(=O)c2ccc3nc(CN4CCC4)ccc3c2)c1)c1ccc2c(c1)OCCC2` [Example 20, 2-(Azetidin-1-ylmethyl)-N-(2-chloro-5-(chroman-7-carboxamido)phenyl)quinoline-6-carboxamide] to `O=C(Nc1ccc(Cl)c(NC(=O)c2ccc3nc(CN4CCC4)ccc3c2)c1)c1ccc2c(c1)OCC2` [Example 21], the IC50 falls from 3800 nM to 1800 nM (2.1-fold).

`O=C(Nc1ccc(F)c(NC(=O)c2ccc3nc(CN4CCC4)ccc3c2)c1)c1ccc2c(c1)OCC2` [Example 19, 2-(Azetidin-1-ylmethyl)-N-(5-(2,3-dihydrobenzofuran-6-carboxamido)-2-fluorophenyl)quinoline-6-carboxamide] and `Cc1ccc2cc(C(=O)Nc3cc(NC(=O)c4ccc5c(c4)OCCC5)ccc3F)ccc2n1` [Example 6, N-(5-(Chroman-7-carboxamido)-2-fluorophenyl)-2-methylquinoline-6-carboxamide] are within 1.5-fold of each other in IC50: 3100 nM for the first, 2700 nM for the second.
